The record followed here is the METLIN SMRT retention time set (Domingo-Almenara et al. 2019).

The nature of the data set: gradient 5% acetonitrile 3 min, to 50% in 2 min, to 85% in 15 min, held 3 min, 100 µL/min. To be noted: column: Zorbax Extend-C18 2.1 x 50 mm; eluents: water / acetonitrile, 0.1% formic acid. The gist of the method:
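Data were gathered over 3 months by HPLC coupled to a quadrupole time-of-flight mass spectrometer, operated in positive and negative ionization mode. Mixtures of ~100 pure standards ran on a Zorbax Extend-C18 column (2.1 × 50 mm, 1.8 μm) at 100 μL/min, with water and acetonitrile each containing 0.1% formic acid and dead and dwell volumes of 40 μL and 900 μL. Retention time was read from adduct peaks picked by computer and checked manually.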
In turn, `COc1ccc(-c2c(C)noc2NC(C)=O)cc1S(=O)(=O)Nc1ccc(F)cc1F` registered an RP-LC retention time of 743 s.

Take `CCc1nc(-c2csc(S(=O)(=O)N3CCC(C(=O)Nc4ccc(OC)cc4)CC3)c2)no1`: the RP-LC retention time came out at 930 s.

For `COc1ccc(NC(=O)Cn2cccc2-c2nnc(-c3ccccc3)o2)cc1OC`, the RP-LC retention time stood at 850 s.

For `Cc1cccc(-c2noc(Cn3ncn4nc(-c5cccs5)cc4c3=O)n2)c1`, the RP-LC retention time is 1100 s.

The molecule `COc1ccc(NC(=O)c2[nH]c3cc(C)sc3c2CN2CCCC2)c(C)c1` returned an RP-LC retention time of 708 s.

Regarding `COc1ccc(C(=O)Nc2ccc3c(c2)N(C(=O)C2CCCO2)CC3)c(OC)c1OC` (configuration not stated), the RP-LC retention time amounted to 615 s.

In turn, `Cc1ccc2c(C(=O)NCCc3cccs3)cc(NC(=O)C(C)C)cc2n1` displayed an RP-LC retention time of 643 s.

`Cc1noc(C2CN(C(=O)Nc3cccc(Cl)c3C)CC23CCOCC3)n1` (configuration not stated): the RP-LC retention time was 792 s.

On to `CCOc1ccccc1N1CCN(c2cc(C(=O)O)c3cc(NC(=O)CC)ccc3n2)CC1`, for which the RP-LC retention time stood at 634 s.

`COc1cccc(CC(=O)NC2CCN(c3cc(-c4ccccc4)[nH]n3)C2)c1` (configuration not stated): the RP-LC retention time came out at 673 s.

In the case of `COc1ccc(S(=O)(=O)N2CCc3nc(-c4ccc(F)cc4)ncc3C2)cc1Cl`, the RP-LC retention time stood at 1140 s.

Molecule `O=C(Nc1ccccc1)N1CCC(n2c(-c3ccoc3)nc3cccnc32)C1` (configuration not stated) returned an RP-LC retention time of 712 s.

For `Cn1ncc2c(Nc3cccc([N+](=O)[O-])c3)ncnc21`, the RP-LC retention time turned out to be 683 s.

Take `O=C(C1CCN(c2ncccc2-c2nc(-c3ccccc3)no2)CC1)N1CCN(c2ncccn2)CC1`: the RP-LC retention time worked out at 967 s.

Take `COc1ccc(-c2nnc3n2CCN(Cc2ccccc2C#N)C3)cc1`: the RP-LC retention time turned out to be 668 s.

The molecule `O=C(Nc1cccc(-c2nc3ccccc3o2)c1)c1ccc(F)cc1F` gave an RP-LC retention time of 994 s.

`COc1ccc(S(=O)(=O)N2CCC(c3nc(C(=O)N4CCOCC4)c(C)o3)CC2)cc1`: the RP-LC retention time came to 752 s.

As to `CCCOc1ccc(CN2C[C@@H]3C(=O)N(CCCN4CCCC4=O)C(=O)[C@@H]3C2)cc1`, the RP-LC retention time stood at 630 s.

In the case of `O=C(NCc1ccc(N2CCCCC2)cc1)c1cn2c(n1)CSCC2`, the RP-LC retention time is 577 s.

As for `Cc1ccc(F)c(NS(=O)(=O)c2cc3n(c2)CCCN(C)C3=O)c1`, the RP-LC retention time turned out to be 687 s.

Take `Cn1c(SCC(=O)c2ccc(F)cc2)nnc1-c1ccncc1`: the RP-LC retention time was 620 s.

As to `O=C(NC1CC1)c1ccc(-c2nc3cccnc3n(C3CCCC3)c2=O)cc1`, the RP-LC retention time worked out at 970 s.

For `CC(C)NC(=O)c1c2c(cn(-c3ccccc3)c1=O)C(=O)CC(C)(C)C2`, the RP-LC retention time is 878 s.

With `Cc1ccc(C(=O)COc2cc(O)c3c(=O)cc(-c4ccccc4)oc3c2)cc1`, the RP-LC retention time turned out to be 1210 s.

Regarding `CC1CCCN(CCCNC(=O)c2nc(CCS(=O)(=O)c3ccc(F)cc3)no2)C1` (configuration not stated), the RP-LC retention time turned out to be 620 s.

In the case of `Cc1ccc(S(=O)(=O)N(C)C)cc1-c1nnc(-c2ccc(Cl)cc2)o1`, the RP-LC retention time came out at 1080 s.

The molecule `CCc1ccc(OCc2ccc(C(=O)Nc3nc(-c4ccccc4)cs3)o2)cc1` displayed an RP-LC retention time of 1270 s.

`CS(=O)(=O)N1CCCc2ccc(NS(=O)(=O)c3ccc(Cl)s3)cc21` had an RP-LC retention time of 849 s.

The molecule `Cc1nnc2ccc(-c3noc(-c4cccc(F)c4)n3)cn12` came in with an RP-LC retention time of 881 s.

`CCc1noc(C2(NC(=O)c3ccc(C(C)(C)C)cc3)CCCCC2)n1` gave an RP-LC retention time of 1190 s.

On to `CCOC(=O)c1ccc(NC(=O)Cn2nc(N3CCCC(C)C3)c3ccccc3c2=O)cc1` (configuration not stated), for which the RP-LC retention time was 1200 s.

Turning to `O=C(COc1ccc(F)cc1)Nc1cnc(N2CCCCCC2)nc1`, the RP-LC retention time amounted to 957 s.
